Laboratory results: patent US20060167035A1, “Quinoline derivative, its use, production and pharmaceutical agents containing the latter” (priority 2004, published 2006)

The compounds below were run against T1, recombinant EphB4 kinase (Homo sapiens, UniProt P54760) (assay: Test System for EphB4 (HTRF kinase assay)). Conditions: polyGluAlaTyr substrate, 2 μM ATP, HTRF readout, read-out: IC50 of EphB4 kinase inhibition.
T1 construct: purchased ProQinase GmbH, Freiburg, Germany
T1 sequence (P54760 16-987): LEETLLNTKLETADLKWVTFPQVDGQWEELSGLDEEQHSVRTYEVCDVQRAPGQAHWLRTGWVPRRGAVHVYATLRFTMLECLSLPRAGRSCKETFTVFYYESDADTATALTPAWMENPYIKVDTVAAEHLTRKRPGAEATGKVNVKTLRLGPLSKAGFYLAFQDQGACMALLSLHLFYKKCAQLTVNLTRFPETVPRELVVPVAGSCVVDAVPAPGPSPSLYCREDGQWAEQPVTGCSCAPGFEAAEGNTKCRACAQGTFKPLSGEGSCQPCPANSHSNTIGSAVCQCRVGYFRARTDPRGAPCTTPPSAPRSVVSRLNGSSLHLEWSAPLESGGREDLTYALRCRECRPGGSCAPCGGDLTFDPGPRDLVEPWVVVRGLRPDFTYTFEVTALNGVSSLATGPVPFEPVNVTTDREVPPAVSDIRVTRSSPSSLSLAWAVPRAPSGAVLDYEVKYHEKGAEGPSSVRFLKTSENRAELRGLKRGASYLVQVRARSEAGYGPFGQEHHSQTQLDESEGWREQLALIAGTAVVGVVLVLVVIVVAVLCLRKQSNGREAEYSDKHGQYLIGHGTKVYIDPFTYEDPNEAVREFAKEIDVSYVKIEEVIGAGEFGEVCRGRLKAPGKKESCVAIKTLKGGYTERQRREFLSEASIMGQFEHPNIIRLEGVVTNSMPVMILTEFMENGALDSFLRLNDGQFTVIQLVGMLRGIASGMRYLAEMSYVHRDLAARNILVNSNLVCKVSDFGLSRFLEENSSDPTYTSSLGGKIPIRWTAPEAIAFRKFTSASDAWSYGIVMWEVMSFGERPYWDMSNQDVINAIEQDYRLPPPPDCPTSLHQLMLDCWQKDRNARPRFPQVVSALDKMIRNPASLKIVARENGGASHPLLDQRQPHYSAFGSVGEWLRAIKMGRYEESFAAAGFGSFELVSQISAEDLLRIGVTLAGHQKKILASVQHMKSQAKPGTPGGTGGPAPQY
Format: biochemical
Method: A mixture that consists of 20 ng/ml of recombinant EphB4 kinase (ProQinase GmbH, Freiburg, Germany), 2.67 μg/ml of polyGluAlaTyr, 2 μM of ATP, 25 mmol of HEPES (pH 7.3), 5 mmol of MgCl2, 1 mmol of MnCl2, 2 mmol of DTT, 0.1 mmol of NaVO4, 1% (v/v) of glycerol, 0.02% NP40, EDTA-free protease inhibitors (Complete Roche Company, 1 tablet in 50 ml) is incubated for 10 minutes at 20° C. Test substances are dissolved in 100% DMSO and introduced in a 0.017× volume before the reaction begins. 60 minutes after 1.7× volume of a solution of 50 mmol of Hepes, pH 7.0, 0.2% BSA, 0.14 μg/ml of PT66-Europium, 3.84 μg/ml of SA-XL665, 75 mmol of EDTA is added, the batch is measured in a Discovery HTRF measuring device of the PerkinElmer Company.
Compound `Cc1nc2c(ccc3nccc(Nc4cc(O)ccc4C)c32)s1` [Example 2, 4-Methyl-3-(2-methyl-thiazolo[4,5-f]quinolin-9-ylamino)-phenol] has an IC50 of 0.27 µM.

Same assay, conditions: polyGluAlaTyr substrate, 2 μM ATP, HTRF readout, read-out: IC50 of EphB4 kinase inhibition (upper bound)
With `Cc1nc2c(ccc3nccc(Nc4cc(O)ccc4C)c32)s1` [Example 2, 4-Methyl-3-(2-methyl-thiazolo[4,5-f]quinolin-9-ylamino)-phenol] the IC50 was under 25 µM. `Cc1ccc(O)cc1Nc1ccnc2ccc3c(c12)CCS3(=O)=O` [Example 4, 3-(3,3-Dioxo-2,3-dihydro-1H-3λ^6-thieno[3,2-f]quinolin-9-ylamino)-4-methyl-phenol] was tested, and the IC50 was under 25 µM. `O=S1(=O)CCc2c1ccc1nccc(Nc3cccc(O)c3)c21` [Example 5, 3-(3,3-Dioxo-2,3-dihydro-1H-3λ^6-thieno[3,2-f]quinolin-9-ylamino)-phenol] was tested, and the IC50 was under 25 µM. Work on `Cc1ccc(Nc2ccnc3ccc4c(c23)CCS4(=O)=O)cc1O` [Example 15, 5-(3,3-Dioxo-2,3-dihydro-1H-3λ^6-thieno[3,2-f]quinolin-9-ylamino)-2-methylphenol] yielded an IC50 of under 25 µM. `Cc1ccc(O)cc1Nc1ccnc2ccc3ccsc3c12` [Example 3, 4-Methyl-3-(thieno[2,3-f]quinolin-9-ylamino)-phenol] gave an IC50 of under 25 µM. `Cc1ccc(O)cc1Nc1ccnc2ccc3sccc3c12` [Example 1, 4-Methyl-3-(thieno[3,2-f]quinolin-9-ylamino)-phenol] gave an IC50 of under 25 µM.
